Test system: MCF7
Experiment: Antiproliferative activity against Homo sapiens (human) MCF7 cells after 72 hr by SRB assay
Format: functional, cell-based
Conditions: MCF7, 72 h

Structure (SMILES)	IC50 [µM]
COc1ccc(N2CCN(c3nnc(-c4ccc(Br)cc4)c4ccccc34)CC2)cc1	17.5
CCOc1ccccc1N1CCN(c2nnc(-c3ccc(Br)cc3)c3ccccc23)CC1	4.77
Brc1ccc(-c2nnc(N(Cc3ccccc3)Cc3ccccc3)c3ccccc23)cc1	4.8
Brc1ccc(-c2nnc(N3CCCCC3)c3ccccc23)cc1	9.1
Brc1ccc(-c2nnc(Sc3nc4ccccc4s3)c3ccccc23)cc1	2.3
Brc1ccc(-c2nnc(N3CCN(c4ccccc4)CC3)c3ccccc23)cc1	9.7
COc1ccccc1N1CCN(c2nnc(-c3ccc(Br)cc3)c3ccccc23)CC1	8.6

The next compounds have a lower IC50 than those just listed; values first:

IC50 [µM]	Structure (SMILES)
1.9	Brc1ccc(-c2nnc(N3CCOCC3)c3ccccc23)cc1
1.7	Clc1cccc(Cl)c1Nc1nnc(-c2ccc(Br)cc2)c2ccccc12
1.4	Brc1ccc(-c2nnc(Nc3nccs3)c3ccccc23)cc1
1.7	Clc1ncccc1Nc1nnc(-c2ccc(Br)cc2)c2ccccc12
1.5	CN1CCN(c2nnc(-c3ccc(Br)cc3)c3ccccc23)CC1
